Reference: patent publication US20240058443A1, “PREVENTION OR MITIGATION OF NK CELL ENGAGING AGENT-RELATED ADVERSE EFFECTS” (Hoffmann-La Roche Inc., priority 2021, published 2024)

Assays:
[1] = tested on: cytokine release induced via FcγR signaling; experiment: Whole blood assay: obinutuzumab-induced cytokine release, serum cytokines analyzed by Luminex; format: cell-based; conditions: for levels of IFN-γ: FIG. 2A; for levels of TNF-α: FIG. 2C; for levels of MCP-1: FIG. 2F; for cytokine release: overall statement, whole blood, obinutuzumab; for cytokine release induced by an NK cell engaging antibody: summary statement of the description, no conditions given
Method: FIG. 2. Effect of 100 nM ruxolitinib (ruxo), 100 nM sirolimus (siro), 100 nM dasatinib (dasa) on obinutuzumab-induced IFN-γ (FIG. 2A), IL-2 (FIG. 2B), TNF-α (FIG. 2C), IL-6 (FIG. 2D), IL-8 (FIG. 2E) and MCP-1 (FIG. 2F) for 100, 10, 1 and 0.1 μg/mL obinutuzumab in a whole blood assay. Fresh whole blood was incubated with 100, 10, 1 and 0.1 μg/mL obinutuzumab or PGLALA IgG in the presence and absence of 100 nM ruxolitinib, 100 nM sirolimus and 100 nM dasatinib for 48 hours. The PGLALA IgG has a silent Fc region and is a negative control. At 24 hours, serum was collected and cytokines were analyzed by Luminex. Mean of n=2 donors.
(§1) The CD20-targeting, effector-enhanced antibody obinutuzumab (Gazyva®) depletes B cells via FcγR signaling, and can be associated with a risk of infusion reaction characterized by cytokine release induced via FcγR signaling. To assess whether the mTOR inhibitor sirolimus, the JAK1/2 inhibitor ruxolitinib and the Src inhibitor dasatinib can prevent cytokine release induced via FcγR signaling, a whole blood assay using escalating doses of obinutuzumab in the presence and absence of sirolimus, ruxolitinib and dasatinib was conducted. A corresponding anti-CD20 IgG with a silent Fc portion (comprising “PGLALA” mutations L234A, L235A, P329G (Kabat EU numbering)) was used as a negative control (“PGLALA IgG”). In this assay, fresh whole blood is incubated together with concentrations of obinutuzumab ranging from 100 μg/mL to 0.1 μg/mL in the presence and absence of 100 nM sirolimus, 100 nM ruxolitinib and 100 nM dasatinib. To assess the impact of the different kinase inhibitors on cytokine release, serum was collected at 24 hours and cytokines were analyzed by Luminex. To assess the impact of the different kinase inhibitors on B cell depletion, blood was lysed at 48 hours and B cell depletion was measured by flow cytometry.

CD19+ B cell = experiment: Whole blood assay: obinutuzumab-induced B cell depletion measured by flow cytometry; format: cell-based; conditions: for B cell depletion induced by obinutuzumab: 100 nM inhibitor, fresh whole blood, obinutuzumab 100 to 0.1 μg/mL, 48 hours, FIG. 1; for target cell killing mediated by NK cell engaging antibody: summary statement of the description, no conditions given
Method: FIG. 1. Effect of 100 nM ruxolitinib (ruxo), 100 nM sirolimus (siro), 100 nM dasatinib (dasa) on obinutuzumab-induced CD19^+ B cell depletion in a whole blood assay. Fresh whole blood was incubated with 100, 10, 1 and 0.1 μg/mL obinutuzumab or PGLALA IgG in the presence and absence of 100 nM ruxolitinib, 100 nM sirolimus and 100 nM dasatinib for 48 hours. The PGLALA IgG has a silent Fc region and is a negative control. At 48 hours, blood was collected and lysed and the percentage of CD19^+ B cell among live cells was measured by flow cytometry. Mean of n=2 donors.
as §1

[2] = 100 nM inhibitor, fresh whole blood, obinutuzumab 100 to 0.1 μg/mL, serum at 24 hours
[3] = 100 nM inhibitor, fresh whole blood, obinutuzumab 100 to 0.1 μg/mL, serum at 24 hours, FIG. 2D, first IL-6 of the list
[4] = 100 nM inhibitor, fresh whole blood, obinutuzumab 100 to 0.1 μg/mL, serum at 24 hours, second IL-6 of the list

Compound | levels of IFN-γ [1, 2] | levels of IL-2 ([1]; 100 nM inhibitor, fresh whole blood, obinutuzumab 100 to 0.1 μg/mL, serum at 24 hours, FIG. 2B) | levels of TNF-α [1, 2] | levels of IL-6 [1, 3] | levels of MCP-1 [1, 2] | levels of IL-6 [1, 4] | potency in reducing cytokine release among the three classes of kinase inhibitors ([1]; comparison of Src, mTOR and JAK1/2 inhibitor at 100 nM) | cytokine release ([1]; 100 nM inhibitor) | cytokine release induced by an NK cell engaging antibody [1] | B cell depletion induced by obinutuzumab (CD19+ B cell) | target cell killing mediated by NK cell engaging antibody (CD19+ B cell)
Cc1nc(Nc2ncc(C(=O)Nc3c(C)cccc3Cl)s2)cc(N2CCN(CCO)CC2)n1 [dasatinib, N-(2-chloro-6-methylphenyl)-2[[6[4-(2-hydroxyethyl)-1-piperazinyl]-2-methyl-4-pyrimidinyl]amino]-5-thiazole carboxamide monohydrate] | strongly reduced | strongly reduced | strongly reduced | strongly reduced | strongly reduced | strongly reduced | most potent | reduced cytokine release | potently prevent | did not prevent | retaining
CO[C@H]1C[C@@H]2CC[C@@H](C)[C@@](O)(O2)C(=O)C(=O)N2CCCC[C@H]2C(=O)O[C@H]([C@H](C)C[C@@H]2CC[C@@H](OCCO)[C@H](OC)C2)CC(=O)[C@H](C)/C=C(\C)[C@@H](O)[C@@H](OC)C(=O)[C@H](C)C[C@H](C)/C=C/C=C/C=C/1C [everolimus, Everolimus] | – | – | – | – | – | – | – | – | potently prevent | – | retaining
N#CC[C@H](C1CCCC1)n1cc(-c2ncnc3[nH]ccc23)cn1 [ruxolitinib, Ruxolitinib] | reduced | – | reduced | reduced | reduced | reduced | – | reduced cytokine release | potently prevent | did not prevent | retaining
CO[C@H]1C[C@@H]2CC[C@@H](C)[C@@](O)(O2)C(=O)C(=O)N2CCCC[C@H]2C(=O)O[C@H]([C@H](C)C[C@@H]2CC[C@@H](O)[C@H](OC)C2)CC(=O)[C@H](C)/C=C(\C)[C@@H](O)[C@@H](OC)C(=O)[C@H](C)C[C@H](C)/C=C/C=C/C=C/1C [sirolimus, Sirolimus] | reduced | – | reduced | reduced | reduced | reduced | – | reduced cytokine release | potently prevent | did not prevent | retaining
CO[C@H]1C[C@@H]2CC[C@@H](C)[C@@](O)(O2)C(=O)C(=O)N2CCCC[C@H]2C(=O)O[C@H]([C@H](C)C[C@@H]2CC[C@@H](OC(=O)C(C)(CO)CO)[C@H](OC)C2)CC(=O)[C@H](C)/C=C(\C)[C@@H](O)[C@@H](OC)C(=O)[C@H](C)C[C@H](C)/C=C/C=C/C=C/1C [temsirolimus, Temsirolimus] | – | – | – | – | – | – | – | – | potently prevent | – | retaining
